Where two headings read alike, the source gives them in different places.
Molecular target: T1, integrin alpha5beta1 (Homo sapiens, UniProt P05556+P08648)
T1 construct: The integrin alpha5beta1 extracellular domain Fc-fusion was expressed and purified; made in house
Assay: Alpha5beta1-Fibronectin binding assay (competitive ELISA)
Description: The optimal concentrations of integrin and ligand were selected from ELISA binding studies with variable concentrations of both to obtain optimal signal noise ratio for further studies. IC50 studies were performed with fixed concentration of ligand and integrin and a serial dilution of inhibitor. The plates were measured with SpectraMax Plus reader (Molecular Devices). The resulting inhibition curves were analyzed using SoftMaxPro 4.0 software, the turning point describes the IC50 value.
Fibronectin and Vitronectin were purchased from Sigma, fibrinogen from Calbiochem. (EMD Biosciences, Darmstadt, Germany) The integrin alpha5beta1 extracellular domain Fc-fusion was expressed and purified as described in (Coe, 2001, JBC, 276, 35854). Integrins alphavbeta3 and alphavbeta5 were purchased from Chemicon (Chemicon Europe, Germany) and alphaIIbbeta3 form Kordia (Kordia Life Science, Leiden, Netherlands)
Fibronectin was diluted with coating buffer (15 mM Na2CO3, 35 mM NaHCO3, pH9.6) and coated with 100 μL/well to Nunc-Immuno maxisorp plates (Nalge Nunc Europe Ltd) over night at 4° C. After discarding the coating solution plates were washed 3 times with buffer 1 ([…], pH7.6, 150 mM NaCl, 1 mM […], 1 mg/mL BSA) and blocked with 100 μL blocking buffer (3% BSA in PBS 0.1% Tween20) for 1 hour at room temperature. After washing the blocked plates (3 times) with buffer 1, integrin (50 μL) and either inhibitor (serial dilution in buffer 1) or buffer 1 (50 μL) were added to the wells and incubated for one hour at RT. Plates were then washed (3 times) with buffer 1 and incubated with 100 μL of anti-human-Fc-HRP antibody conjugate (Sigma-Aldrich, Taufkirchen, Germany) in buffer 1 for 1 hour at RT. After additional washing steps (3 times) with buffer 1 50 μL of HRP substrate solution TMB (Seramun, Germany) were added to the wells. Colour development was stopped after 3-5 minutes with 50 μL 1M H2SO4. The developed colour was measured at 450 nm and analyzed as described above.

[1] = inhibition of integrin binding to fibronectin, read-out: IC50 alpha5beta1 in nM
[2] = method of section 1.1, read-out: Group (binding activities to integrin alpha5beta1)

Cc1cc(C)c(S(=O)(=O)N[C@@H](CNC(=O)CO[C@@H]2C[C@@H](CNc3ccccn3)N(S(=O)(=O)Cc3ccccc3)C2)C(=O)O)c(C)c1 [Compound 15, 3-{2-[1-Phenylmethanesulfonyl-5-(pyridin-2-ylaminomethyl)-pyrrolidin-3-yloxy]-acetylamino}-2-(2,4,6-trimethyl-benzenesulfonylamino)-propionic acid]
IC50 [1]: 11.3 nM
IC50 [2]: 10 to 500 nM

Cc1cc(C)c(S(=O)(=O)N[C@@H](CNC(=O)CO[C@@H]2C[C@@H](CNc3ccccn3)N(CCCc3ccccc3)C2)C(=O)O)c(C)c1 [Compound 18, 3-{2-[1-(3-Phenyl-propyl)-5-(pyridin-2-ylaminomethyl)-pyrrolidin-3-yloxy]-acetylamino}-2-(2,4,6-trimethyl-benzenesulfonylamino)-propionic acid]
IC50 [2]: 10 to 500 nM

Cc1cc(C)c(S(=O)(=O)N[C@@H](CNC(=O)CO[C@@H]2C[C@@H](CNc3ccccn3)N(C(=O)NC3CCCC3)C2)C(=O)O)c(C)c1 [Compound 20, 3-{2-[1-Cyclopentylcarbamoyl-5-(pyridin-2-ylaminomethyl)-pyrrolidin-3-yloxy]-acetylamino}-2-(2,4,6-trimethyl-benzenesulfonylamino)-propionic acid]
IC50 [1]: 6.6 nM
IC50 [2]: < 10 nM

Cc1ccc(CNC(=O)N2C[C@H](OCC(=O)NC[C@H](NS(=O)(=O)c3c(C)cc(C)cc3C)C(=O)O)C[C@H]2CNc2ccccn2)cc1 [Compound 25, 3-{2-[1-(4-Methyl-benzylcarbamoyl)-5-(pyridin-2-ylaminomethyl)-pyrrolidin-3-yloxy]-acetylamino}-2-(2,4,6-trimethyl-benzenesulfonylamino)-propionic acid]
IC50 [1]: 18.1 nM
IC50 [2]: 10 to 500 nM

Cc1cc(C)c(S(=O)(=O)N[C@@H](CNC(=O)CO[C@@H]2C[C@@H](CNc3ccccn3)N(C(=O)CC(C)(C)C)C2)C(=O)O)c(C)c1 [Compound 31, 3-{2-[1-(3,3-Dimethyl-butyryl)-5-(pyridin-2-ylaminomethyl)-pyrrolidin-3-yloxy]-acetylamino}-2-(2,4,6-trimethyl-benzenesulfonylamino)-propionic acid]
IC50 [2]: < 10 nM

Cc1cc(C)c(S(=O)(=O)N[C@@H](CNC(=O)CO[C@@H]2C[C@@H](CNc3ccccn3)N(C(=O)CC3CCCC3)C2)C(=O)O)c(C)c1 [Compound 35, 3-{2-[1-(2-Cyclopentyl-acetyl)-5-(pyridin-2-ylaminomethyl)-pyrrolidin-3-yloxy]-acetylamino}-2-(2,4,6-trimethyl-benzenesulfonylamino)-propionic acid]
IC50 [2]: 10 to 500 nM

COc1cccc(CC(=O)N2C[C@H](OCC(=O)NC[C@H](NS(=O)(=O)c3c(C)cc(C)cc3C)C(=O)O)C[C@H]2CNc2ccccn2)c1 [Compound 36, 3-{2-[1-[2-(3-Methoxy-phenyl)-acetyl]-5-(pyridin-2-ylaminomethyl)-pyrrolidin-3-yloxy]-acetylamino}-2-(2,4,6-trimethyl-benzenesulfonylamino)-propionic acid]
IC50 [2]: 10 to 500 nM

CCC(=O)N1C[C@H](OCC(=O)NC[C@H](NS(=O)(=O)c2c(C)cc(C)cc2C)C(=O)O)C[C@H]1CNc1ccccn1 [Compound 38, 3-{2-[1-Propionyl-5-(pyridin-2-ylaminomethyl)-pyrrolidin-3-yloxy]-acetylamino}-2-(2,4,6-trimethyl-benzenesulfonylamino)-propionic acid]
IC50 [1]: 11.9 nM
IC50 [2]: 10 to 500 nM

Cc1cc(C)c(S(=O)(=O)N[C@@H](CNC(=O)CO[C@@H]2C[C@@H](CNc3ccccn3)N(C(=O)OCC(C)C)C2)C(=O)O)c(C)c1 [Compound 41, 4-{[2-Carboxy-2-(2,4,6-trimethyl-benzenesulfonylamino)-ethylcarbamoyl]-methoxy}-2-(pyridin-2-ylaminomethyl)-pyrrolidine-1-carboxylic acid isobutyl ester]
IC50 [2]: < 10 nM

C#CCOC(=O)N1C[C@H](OCC(=O)NC[C@H](NS(=O)(=O)c2c(C)cc(C)cc2C)C(=O)O)C[C@H]1CNc1ccccn1 [Compound 44, 4-{[2-Carboxy-2-(2,4,6-trimethyl-benzenesulfonylamino)-ethylcarbamoyl]-methoxy}-2-(pyridin-2-ylaminomethyl)-pyrrolidine-1-carboxylic acid prop-2-ynyl ester]
IC50 [1]: 5.8 nM
IC50 [2]: < 10 nM

Cc1cc(C)c(S(=O)(=O)N[C@@H](CNC(=O)CO[C@@H]2C[C@@H](CNc3ccccn3)N(C(=S)Nc3ccc(-c4c5ccc(=O)cc-5oc5cc(O)ccc45)c(C(=O)O)c3)C2)C(=O)O)c(C)c1 [Compound 61, 5-{[4-{[2-Carboxy-2-(2,4,6-trimethyl-benzenesulfonylamino)-ethylcarbamoyl]-methoxy}-2-(pyridin-2-ylaminomethyl)-pyrrolidine-1-carbothioyl]-amino}-2-(6-hydroxy-3-oxo-3H-xanthen-9-yl)-benzoic acid]
IC50 [2]: 10 to 500 nM

Cc1cc(C)c(S(=O)(=O)N[C@@H](CNC(=O)CO[C@@H]2C[C@@H](CNc3ccccn3)N(C(=O)C(F)(F)C(F)(F)C(F)(F)C(F)(F)C(F)(F)C(F)(F)C(F)(F)F)C2)C(=O)O)c(C)c1 [Compound 63, 3-{2-[1-(2,2,3,3,4,4,5,5,6,6,7,7,8,8,8-Pentadecafluoro-octanoyl)-5-(pyridin-2-ylaminomethyl)-pyrrolidin-3-yloxy]-acetylamino}-2-(2,4,6-trimethyl-benzenesulfonylamino)-propionic acid]
IC50 [2]: > 500 nM

CS(=O)(=O)NC(CNC(=O)COC1CC(CNc2ccccn2)N(C(=O)OCc2ccccc2)C1)C(=O)O (centres unmarked) [Compound 69, 4-[(2-Carboxy-2-methanesulfonylamino-ethylcarbamoyl)-methoxy]-2-(pyridin-2-ylaminomethyl)-pyrrolidine-1-carboxylic acid benzyl ester]
IC50 [2]: > 500 nM

O=C(CO[C@@H]1C[C@@H](CNc2ccccn2)N(C(=O)OCc2ccccc2)C1)NC[C@H](NC(=O)CCc1ccccc1)C(=O)O [Compound 74, 4-{[2-Carboxy-2-(3-phenyl-propionylamino)-ethylcarbamoyl]-methoxy}-2-(pyridin-2-ylaminomethyl)-pyrrolidine-1-carboxylic acid benzyl ester]
IC50 [2]: 10 to 500 nM

O=C(CO[C@@H]1C[C@@H](CNc2ccccn2)N(C(=O)OCc2ccccc2)C1)NC[C@H](NC(=O)Nc1ccc(-c2ccccc2)cc1)C(=O)O [Compound 80, 4-{[2-(3-Biphenyl-4-yl-ureido)-2-carboxy-ethylcarbamoyl]-methoxy}-2-(pyridin-2-ylaminomethyl)-pyrrolidine-1-carboxylic acid benzyl ester]
IC50 [2]: 10 to 500 nM

N[C@@H](CNC(=O)CO[C@@H]1C[C@@H](CNc2ccccn2)N(C(=O)OCc2ccccc2)C1)C(=O)O [Compound 81, 4-[(2-Amino-2-carboxy-ethylcarbamoyl)-methoxy]-2-(pyridin-2-ylaminomethyl)-pyrrolidine-1-carboxylic acid benzyl ester]
IC50 [2]: > 500 nM

Cc1cc(C)c(CNC(CNC(=O)COC2CC(CNc3ccccn3)N(C(=O)OCc3ccccc3)C2)C(=O)O)c(C)c1 (centres unmarked) [Compound 82, 4-{[2-Carboxy-2-(2,4,6-trimethyl-benzylamino)-ethylcarbamoyl]-methoxy}-2-(pyridin-2-ylaminomethyl)-pyrrolidine-1-carboxylic acid benzyl ester]
IC50 [2]: > 500 nM

O=C(CO[C@@H]1C[C@@H](CNc2ccccn2)N(C(=O)OCc2ccccc2)C1)NC[C@H](NC(=O)c1cc(C(F)(F)F)cc(C(F)(F)F)c1)C(=O)O [Compound 86, 4-{[2-(3,5-Bis-trifluoromethyl-benzoylamino)-2-carboxy-ethylcarbamoyl]-methoxy}-2-(pyridin-2-ylaminomethyl)-pyrrolidine-1-carboxylic acid benzyl ester]
IC50 [2]: > 500 nM

COc1cccc(OC)c1C(=O)N[C@@H](CNC(=O)CO[C@@H]1C[C@@H](CNc2ccccn2)N(C(=O)OCc2ccccc2)C1)C(=O)O [Compound 90, 4-{[2-Carboxy-2-(2,6-dimethoxy-benzoylamino)-ethylcarbamoyl]-methoxy}-2-(pyridin-2-ylaminomethyl)-pyrrolidine-1-carboxylic acid benzyl ester]
IC50 [2]: < 10 nM

O=C(CO[C@@H]1C[C@@H](CNc2ccccn2)N(C(=O)OCc2ccccc2)C1)NC[C@H](NC(=O)C1CCCCC1)C(=O)O [Compound 91, 4-{[2-Carboxy-2-(cyclohexanecarbonyl-amino)-ethylcarbamoyl]-methoxy}-2-(pyridin-2-ylaminomethyl)-pyrrolidine-1-carboxylic acid benzyl ester]
IC50 [2]: < 10 nM

Cc1cccc(C)c1C(=O)N[C@@H](CNC(=O)CO[C@@H]1C[C@@H](CNc2ccccn2)N(C(=O)OCc2ccccc2)C1)C(=O)O [Compound 92, 4-{[2-Carboxy-2-(2,6-dimethyl-benzoylamino)-ethylcarbamoyl]-methoxy}-2-(pyridin-2-ylaminomethyl)-pyrrolidine-1-carboxylic acid benzyl ester]
IC50 [2]: < 10 nM

— patent US8501787B2, “Compounds for the inhibition of angiogenesis and use thereof” (Shire Orphan Therapies GmbH, priority 2004, dated 2013)
